Laboratory results published in US20150299061A1, “FERTILISER COMPOSITION” (priority 2012, published 2015).
Marks after values point to notes of the source that are not given here.

System: grazed pasture
Assay: Field trial on grazed pasture: pasture shoot dry matter from two cuts after treatment application
Format: in vivo
Set-up: Mean Difference vs C (control) / Mean Difference vs UG-20 / Mean Difference vs UG-20 + GA-10 / Mean Difference vs UG-20 + GA-30 / Mean Difference vs UG-20 + GA-60 / Mean Difference vs UL-20 / Mean Difference vs UL-20 + GA-20 / Mean Difference (Control minus treatment): unit not given here
Protocol: The trial was carried out with a total of eight treatments. The eight treatment groups were • 1. Control—negative control (no nitrogen or gibberellic acid), • 2. GA-20—gibberellic acid positive control (gibberellic acid applied at 20 g/ha), • 3. UG-20—granular urea positive control (granular urea applied at a rate of 20 kg N/ha, • 4. UG-20+GA-10—10 g/ha gibberellic acid-coated urea granules (granular urea-20 coated with gibberellic acid to apply gibberellic acid at a rate of 10 g/ha), • 5. UG-20+GA-30—30 g/ha gibberellic acid-coated urea granules (granular urea-20 coated with gibberellic acid to apply gibberellic acid at a rate of 30 g/ha), and • 6. UG-20+GA-60—60 g/ha gibberellic acid-coated urea granules (granular urea-20 coated with gibberellic acid to apply gibberellic acid at a rate of 60 g/ha). • 7. UL-20—liquid urea positive control (liquid urea applied at a rate of 20 kg N/ha [with total liquid volume of 200 L/ha]), and 8. UL-20+GA-20—liquid urea and gibberellic acid positive control (liquid urea applied at a rate of 20 kg N/ha with gibberellic acid applied at a rate of 20 g/ha).
The trial was performed with four repetitions per treatment group on a plot with an area of 2 m^2×2 m^2 at locations in Whangarei, Matamata, Lincoln, Ashburton, and Southland.
The treatments were applied on grazed pasture. All experimental sites were fenced off four months prior to treatment application to avoid nitrogen inputs from grazing animals and fertiliser application. At each site, four blocks separated by a 1 m buffer were established. Each block contained eight small plots (each plot of 2m^2×2m^2) separated by a 1 m buffer zone to give a total of 32 plots.
The above eight treatments were applied in mid August 2011. Before treatments application, four composite soil samples (0-10 cm soil depth), were collected for key soil properties (i.e. soil pH, organic C &N, Olsen P, K, Ca, Mg, CEC, base saturation and MAF quick test). Each composite soil sample composed of 10 randomly collected soil samples from each block. Pastures from each plot were cut at 4 to 5 cm height using a lawn mower at appropriate times (preferably after every 21 days) to simulate rotational grazing practices. Bulk fresh pasture weight for each plot was recorded. Before mowing pastures from each plot, four small randomly picked pasture samples from each plot were cut using a pair of scissors. Fresh pastures were transferred to sealable plastic bags and were kept in a chilly bin. Fresh pastures from each plastic bag were then be transferred to a pre-weighed paper bag, weighed (at least 2 decimal balance), and dried at 60 to 70° C. for one week. After one week of drying, dry pasture weight was recorded to determine pasture moisture content.
In the case of liquid treatments, these were all applied at a rate of 200 L/ha.
The effectiveness of the treatments was measured by comparing the pasture shoot dry matter from two cuts after treatment application. The first cut was made on 26 Sep. 2011 and the second cut made on 12 Oct. 2011.
The pairwise comparisons were calculated using Fisher's least significant difference (LSD) with P=0.05.

Compound: C=C1C[C@]23C[C@@]1(O)CC[C@H]2[C@@]12C=C[C@H](O)[C@@](C)(C(=O)O1)[C@H]2[C@@H]3C(=O)O [GA-20 only, gibberellic acid]
- Cumulative mean pasture dry matter (mean for the five treatment areas (Whangarei, Matamata, Lincoln, Ashburton, Southland), two cuts after treatment): 3038.7
- Mean Difference (Control minus treatment) (pairwise comparison of Table 1 means, Fisher's LSD P=0.05, Control is first treatment, labelled treatment is subtracted): −757.857*
- Mean Difference vs C (control) (pairwise comparison, Fisher's LSD P=0.05, treatment minus C): 757.857*
- Mean Difference vs UG-20 (pairwise comparison, Fisher's LSD P=0.05, treatment minus UG-20): 56.321
- Mean Difference vs UG-20 + GA-10 (pairwise comparison, Fisher's LSD P=0.05, treatment minus UG-20 + GA-10): −91.281
- Mean Difference vs UG-20 + GA-30 (pairwise comparison, Fisher's LSD P=0.05, treatment minus UG-20 + GA-30): −427.001*
- Mean Difference vs UG-20 + GA-60 (pairwise comparison, Fisher's LSD P=0.05, treatment minus UG-20 + GA-60): −381.674*
- Mean Difference vs UL-20 (pairwise comparison, Fisher's LSD P=0.05, treatment minus UL-20): −141.578
- Mean Difference vs UL-20 + GA-20 (pairwise comparison, Fisher's LSD P=0.05, treatment minus UL-20 + GA-20): −423.846*
